Test results: patent US10471046B2, “Method for treating, preventing, or reducing the risk of skin infection” (Melinta Subsidiary Corp., priority 2014, dated 2019)
Values after ≈ are worked out from the molar mass of the structure shown.

test system: S. aureus; assay: Minimum inhibitory concentrations (MICs) for S. aureus of exemplary compounds (Table 2); format: cell-based; details: Staphylococcus aureus, minimum inhibitory concentrations for S. aureus; read-out: MICs
Outline: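 Growth of S. aureus in media with or without compound, by broth microdilution in microtiter trays following NCCLS M7-A5 guidelines. Values are MICs in μg/mL.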

Row | Compound | MIC [µg/mL]
1 | CC(=O)NC[C@H]1CN(c2ccc(-c3ccc(C[S+]([O-])c4ncc[nH]4)cc3)c(F)c2)C(=O)O1 (stereo partly drawn) [Compound 2038, N-{3-[2-Fluoro-4′-(1H-imidazole-2-sulfinylmethyl)-biphenyl-4-yl]-2-oxo-oxazolidin-5-(S)-ylmethyl}-acetamide] | 2 (≈ 4.38 µM)
2 | CC(=O)NC[C@H]1CN(c2ccc(-c3ccc(CNCc4cnc[nH]4)cc3)c(F)c2)C(=O)O1 [Compound 4066, N-[3-(2-Fluoro-4′-{[(3H-imidazol-4-ylmethyl)-amino]-methyl}-biphenyl-4-yl)-2-oxo-oxazolidin-5-(S)-ylmethyl]-acetamide] | 8 (≈ 18.3 µM)
3 | Cn1nnnc1SC[C@H]1CN(c2ccc(-c3ccc(CNCc4ccncc4)cc3)c(F)c2)C(=O)O1 [Compound 4231, 3-(2-Fluoro-4′-{[(pyridin-4-ylmethyl)-amino]-methyl}-biphenyl-4-yl)-5-(R)-(1-methyl-1H-tetrazol-5-ylsulfanylmethyl)-oxazolidin-2-one] | 32 (≈ 63.3 µM)
4 | CC(=O)NC[C@H]1CN(c2ccc(-c3ccc(CNCc4cnc5ccccc5c4)cc3)c(F)c2)C(=O)O1 [Compound 4021, N-[3-(2-Fluoro-4′-{[(quinolin-3-ylmethyl)-amino]-methyl}-biphenyl-4-yl)-2-oxo-oxazolidin-5-(S)-ylmethyl]-acetamide] | 0.25 (≈ 0.501 µM)
5 | CC(=O)NC[C@H]1CN(c2ccc(-c3ccc(CNCc4cc(Br)no4)cc3)c(F)c2)C(=O)O1 [Compound 4253, N-[3-(4′-{[(3-Bromo-isoxazol-5-ylmethyl)-amino]-methyl}-2-fluoro-biphenyl-4-yl)-2-oxo-oxazolidin-5-(S)-ylmethyl]-acetamide] | 0.5 (≈ 0.966 µM)
6 | CC(=O)NC[C@H]1CN(c2ccc(-c3ccc(CN4CCC(CCO)CC4)cc3)c(F)c2)C(=O)O1 [Compound 1030, N-(3-{2-Fluoro-4′-[4-(2-hydroxy-ethyl)-piperidin-1-ylmethyl]-biphenyl-4-yl}-2-oxo-oxazolidin-5-(S)-ylmethyl)-acetamide] | 2 (≈ 4.26 µM)
7 | CC(=O)NC[C@H]1CN(c2ccc(-c3ccc([C@H](O)CN(CCC(F)(F)Cl)Cc4ccccc4)cc3)c(F)c2)C(=O)O1 [Compound 4249, N-[3-(4′-{2-[Benzyl-(3-chloro-3,3-difluoro-propyl)-amino]-1-(S)-hydroxy-ethyl}-2-fluoro-biphenyl-4-yl)-2-oxo-oxazolidin-5-(S)-ylmethyl]-acetamide] | 8 (≈ 13.6 µM)
8 | CC(=O)NC[C@H]1CN(c2ccc(-c3ccc(CNc4nc(CNC(=O)[C@@H](N)CCCCN)ns4)cc3)c(F)c2)C(=O)O1 [Compound 2014, 2,6-Diamino-hexanoic acid [5-({4′-[5-(acetylamino-methyl)-2-oxo-oxazolidin-3-yl]-2′-fluoro-biphenyl-4-ylmethyl}-amino)-[1,2,4]thiadiazol-3-ylmethyl]-amide] | 2 (≈ 3.34 µM)
9 | CC(=O)NC[C@H]1CN(c2ccc(-c3ccc(CNCc4[nH]nnc4C)cc3)c(F)c2)C(=O)O1 [Compound 4269, N-[3-(2-Fluoro-4′-{[(5-methyl-3H-[1,2,3]triazol-4-ylmethyl)-amino]-methyl}-biphenyl-4-yl)-2-oxo-oxazolidin-5-(S)-ylmethyl]-acetamide] | 2 (≈ 4.42 µM)
10 | CC(=O)NC[C@H]1CN(c2ccc(-c3ccc(CNCCSc4ncc[nH]4)cc3)c(F)c2)C(=O)O1 [Compound 5008, N-[3-(2-Fluoro-4′-{[2-(1H-imidazol-2-ylsulfanyl)-ethylamino]-methyl}-biphenyl-4-yl)-2-oxo-oxazolidin-5-(S)-ylmethyl]-acetamide] | 2 (≈ 4.14 µM)
11 | CC(=O)NC[C@H]1CN(c2ccc(-c3ccc(S(=O)(=O)NCc4ccccn4)cc3)c(F)c2)C(=O)O1 [Compound 3006, N-(3-{2-Fluoro-4′-[(pyridin-2-ylmethyl)-sulfamoyl]-biphenyl-4-yl}-2-oxo-oxazolidin-5-(S)-ylmethyl)-acetamide] | 16 (≈ 32.1 µM)
12 | CC(=O)NC[C@H]1CN(c2ccc(-c3ccc(CNCc4ccc(-c5ccccn5)cc4)cc3)c(F)c2)C(=O)O1 [Compound 4017, N-(3-{2-Fluoro-4′-[(4-pyridin-2-yl-benzylamino)-methyl]-biphenyl-4-yl}-2-oxo-oxazolidin-5-(S)-ylmethyl)-acetamide] | 2 (≈ 3.81 µM)
13 | CC(=O)NC[C@H]1CN(c2ccc(-c3ccc(CNCCc4cnn[nH]4)cc3)c(F)c2)C(=O)O1 [Compound 4266, N-[3-(2-Fluoro-4′-{[2-(3H-[1,2,3]triazol-4-yl)-ethylamino]-methyl}-biphenyl-4-yl)-2-oxo-oxazolidin-5-(S)-ylmethyl]-acetamide] | 4 (≈ 8.84 µM)
14 | CC(=O)NC[C@H]1CN(c2ccc(-c3ccc([C@H](O)CNCc4ccccc4)cc3)c(F)c2)C(=O)O1 [Compound 4246, N-{3-[4′-(2-Benzylamino-1-(S)-hydroxy-ethyl)-2-fluoro-biphenyl-4-yl]-2-oxo-oxazolidin-5-(S)-ylmethyl}-acetamide] | 4 (≈ 8.38 µM)
15 | CC(=O)NC[C@H]1CN(c2ccc(-c3ccc(CNC(=O)c4ccc(F)cc4)cc3)c(F)c2)C(=O)O1 [Compound 4013, N-{4′-[5-(S)-(Acetylamino-methyl)-2-oxo-oxazolidin-3-yl]-2′-fluoro-biphenyl-4-ylmethyl}-4-fluoro-benzamide] | 8 (≈ 16.7 µM)
16 | CC(=O)NC[C@H]1CN(c2ccc(-c3ccc(CN(C)C(=O)c4ccc5cc[nH]c5c4)cc3)c(F)c2)C(=O)O1 [Compound 4050, 1H-Indole-6-carboxylic acid {4′-[5-(S)-(acetylamino-methyl)-2-oxo-oxazolidin-3-yl]-2′-fluoro-biphenyl-4-ylmethyl}-methyl-amide] | 1 (≈ 1.94 µM)
17 | CC(=O)NC[C@H]1CN(c2ccc(-c3ccc(CNCc4csc5ccccc45)cc3)c(F)c2)C(=O)O1 [Compound 4077, N-[3-(4′-{[(Benzo[b]thiophen-3-ylmethyl)-amino]-methyl}-2-fluoro-biphenyl-4-yl)-2-oxo-oxazolidin-5-(S)-ylmethyl]-acetamide] | 16 (≈ 31.8 µM)
18 | CC(=O)NC[C@H]1CN(c2ccc(-c3ccc(CNCc4nn(C)cc4Br)cc3)c(F)c2)C(=O)O1 [Compound 4168, N-[3-(4′-{[(4-Bromo-1-methyl-1H-pyrazol-3-ylmethyl)-amino]-methyl}-2-fluoro-biphenyl-4-yl)-2-oxo-oxazolidin-5-(S)-ylmethyl]-acetamide] | 2 (≈ 3.77 µM)
19 | CC(=O)NC[C@H]1CN(c2ccc(-c3ccc(CNCc4c[nH]c(=O)[nH]c4=O)cc3)c(F)c2)C(=O)O1 [Compound 4101, N-[3-(4′-{[(2,4-Dioxo-1,2,3,4-tetrahydro-pyrimidin-5-ylmethyl)-amino]-methyl}-2-fluoro-biphenyl-4-yl)-2-oxo-oxazolidin-5-(S)-ylmethyl]-acetamide] | 1 (≈ 2.08 µM)
20 | CC(=O)NC[C@H]1CN(c2ccc(-c3ccc(CN(Cc4nnnn4C)C(=O)OC(C)(C)C)cc3)c(F)c2)C(=O)O1 [Compound 4280, {4′-[5-(S)-(Acetylamino-methyl)-2-oxo-oxazolidin-3-yl]-2′-fluorobiphenyl-4-ylmethyl}-(1-methyl-1H-tetrazol-5-ylmethyl)-carbamic acid tert-butyl ester] | 1 (≈ 1.81 µM)
21 | CC(=O)NC[C@H]1CN(c2ccc(-c3ccc(Cn4cc(C)nc4C)cc3)c(F)c2)C(=O)O1 [Compound 1068, N-{3-[4′-(2,4-Dimethyl-imidazol-1-ylmethyl)-2-fluoro-biphenyl-4-yl]-2-oxo-oxazolidin-5-(S)-ylmethyl}-acetamide] | 1 (≈ 2.29 µM)
22 | CC(=O)NC[C@H]1CN(c2ccc(-c3ccc(C(=N)NCc4ccccn4)cc3)c(F)c2)C(=O)O1 [Compound 4097, N-{3-[2-Fluoro-4′-(N-pyridin-2-ylmethyl-carbamimidoyl)-biphenyl-4-yl]-2-oxo-oxazolidin-5-(S)-ylmethyl}-acetamide] | 16 (≈ 34.7 µM)
23 | CC(=O)NC[C@H]1CN(c2ccc(-c3ccc(Cn4ccc(N)n4)cc3)c(F)c2)C(=O)O1 [Compound 1053, N-{3-[4′-(3-Amino-pyrazol-1-ylmethyl)-2-fluoro-biphenyl-4-yl]-2-oxo-oxazolidin-5-(S)-ylmethyl}-acetamide] | 1 (≈ 2.36 µM)
24 | CC(=O)NC[C@H]1CN(c2ccc(-c3ccc(C(=O)NCc4ccccn4)c(F)c3)c(F)c2)C(=O)O1 [Compound 4190, 4′-[5-(S)-(Acetylamino-methyl)-2-oxo-oxazolidin-3-yl]-3,2′-difluoro-biphenyl-4-carboxylic acid (pyridin-2-ylmethyl)-amide] | 1 (≈ 2.08 µM)
25 | CC(=O)NC[C@H]1CN(c2ccc(-c3ccc(CNCCSc4nccs4)cc3)c(F)c2)C(=O)O1 [Compound 5006, N-[3-(2-Fluoro-4′-{[2-(thiazol-2-ylsulfanyl)-ethylamino]-methyl}-biphenyl-4-yl)-2-oxo-oxazolidin-5-(S)-ylmethyl]-acetamide] | 1 (≈ 2 µM)
26 | CC(=O)NC[C@H]1CN(c2ccc(-c3ccc(CNNC(=O)c4ccncc4)cc3)c(F)c2)C(=O)O1 [Compound 4236, N-(3-{2-Fluoro-4′-[N′-(pyridine-4-carbonyl)-hydrazinomethyl]-biphenyl-4-yl}-2-oxo-oxazolidin-5-(S)-ylmethyl)-acetamide] | 0.25 (≈ 0.524 µM)
27 | CC(=O)NC[C@H]1CN(c2ccc(-c3ccc(CNC(=O)C(N)Cc4cccnc4)cc3)c(F)c2)C(=O)O1 (stereo in doubt) [Compound 4310, N-{4′-[5-(S)-(Acetylamino-methyl)-2-oxo-oxazolidin-3-yl]-2′-fluoro-biphenyl-4-ylmethyl}-2-(R)-amino-3-pyridin-3-yl-propionamide] | 4 (≈ 7.91 µM)
28 | CC(=O)NC[C@H]1CN(c2ccc(-c3ccc(Cn4cnc(CO)c4)cc3)c(F)c2)C(=O)O1 [Compound 1050, N-{3-[2-Fluoro-4′-(4-hydroxymethyl-imidazol-1-ylmethyl)-biphenyl-4-yl]-2-oxo-oxazolidin-5-(S)-ylmethyl}-acetamide] | 2 (≈ 4.56 µM)
29 | CC(=O)NC[C@H]1CN(c2ccc(-c3ccc(C(=N)NCc4ccco4)cc3)c(F)c2)C(=O)O1 [Compound 4222, N-{3-[2-Fluoro-4′-(N-furan-2-ylmethyl-carbamimidoyl)-biphenyl-4-yl]-2-oxo-oxazolidin-5-(S)-ylmethyl}-acetamide] | 16 (≈ 35.5 µM)

same assay, conditions: Staphylococcus aureus, read-out: MICs

Row | Compound | MIC [µg/mL]
30 | CC(=O)NC[C@H]1CN(c2ccc(-c3ccc(CNCc4cncnc4)cc3)c(F)c2)C(=O)O1 [Compound 4203, N-[3-(2-Fluoro-4′-{[(pyrimidin-5-ylmethyl)-amino]-methyl}-biphenyl-4-yl)-2-oxo-oxazolidin-5-(S)-ylmethyl]-acetamide] | 1 (≈ 2.22 µM)
